The values that follow come from patent US8268805B2, “Use of ceramides for depigmenting the skin” (L'Oreal, priority 2005, dated 2012).

In assay [1] the test system is coculture of keratinocytes and melanocytes. Kind of assay: Modulatory effect on melanogenesis: inhibition of melanin synthesis (thiouracil/leucine incorporation ratio). It is filed as cell-based. The note with it: ratio of thiouracil to leucine incorporation related to 100% of control, read-out: IC50 (concentration for which 50% of the melanin synthesis is inhibited). The protocol:
The modulatory effect on melanogenesis of the compounds tested was measured according to the method described in patent FR-A-2734825, and also in the article by R. Schmidt, P. Krien and M. Regnier, Anal. Biochem., 235(2), 113-18, 1996. This test is carried out on a coculture of keratinocytes and melanocytes.
For the compound tested, the inhibitory activity on melanin synthesis was determined by estimating the ratio of thiouracil incorporation to leucine incorporation, related to 100% of the control (the control corresponds to the test carried out without compound to be tested). The IC50 values (concentration for which 50% of the melanin synthesis is inhibited) were determined.
The test was also carried out with arbutin and lucinol (2-butylbenzene-1,3-diol), which are known depigmenting compounds.

For assay [2], the system named is tyrosinase activity of the melanocytes of human skin. Particulars: cited from earlier work.

Turning to `CCCCCCCC/C=C\CCCCCCCC(=O)NC(CO)C(O)CCCCCCCCCCCCCCC` (centres unmarked) [N-oleoyldihydrosphingosine], in assay [1], the IC50 came to 100 nM. Still for that read-out and setting: the same measure for `CCCCCCCCCCCCCCCC(O)C(CO)NC(=O)C(O)CCCCCCCCCCCCCC` (centres unmarked) [N-2-hydroxypalmitoyldihydrosphingosine]: 100 nM. For the compound `CCCCCCCCCCCCC/C=C/[C@@H](O)[C@@H](N)COP(=O)(O)O` [sphingosine-1-phosphate], in assay [2], the “effect on the tyrosinase activity of the melanocytes of human skin” value is recorded as “no effect”. `CCCCCCCCCCCCC/C=C/[C@@H](O)[C@H](CO)NC(C)=O` [N-acetyl-D-erythrosphingosine]: the “effect on the tyrosinase activity of the melanocytes of human skin” value in assay [2] is listed as “has an effect”.

In the case of `OC[C@H]1O[C@@H](Oc2ccc(O)cc2)[C@H](O)[C@@H](O)[C@@H]1O` [Arbutin], the IC50 in assay [1] is 209000 nM.
